Measurements published in patent US6903099B2, “Condensed pyrazindione derivatives” (Lilly Icos LLC, priority 2000, dated 2005).

What was measured:
recombinant human PDE5 = target: T1, recombinant human PDE5 (Homo sapiens, UniProt O76074); assay: Inhibitory effect on cGMP-PDE (PDE5 IC50 determination); type: biochemical; settings: in vitro, read-out: IC50 versus PDE5
T1 construct: host or cells: Saccharomyces cerevisiae strain BJ2-54 (ATCC 74465)
Protocol: The compounds of structural formula (I) were tested for an ability to inhibit PDE5. The ability of a compound to inhibit PDE5 activity is related to the IC50 value for the compound, i.e., the concentration of inhibitor required for 50% inhibition of enzyme activity. The IC50 value for compounds of structural formula (I) were determined using recombinant human PDE5.
Phosphodiesterase activity of the preparations was determined as follows. PDE assays utilizing a charcoal separation technique were performed essentially as described in Loughney et al. (1996). In this assay, PDE activity converts [32P]cAMP or [32P]cGMP to the corresponding [32P]5′-AMP or [32P]5′-GMP in proportion to the amount of PDE activity present. The [32P]5′-AMP or [32P]5′-GMP then was quantitatively converted to free [32P]phosphate and unlabeled adenosine or guanosine by the action of snake venom 5′-nucleotidase. […] The assay was performed at 30° C. in a 100 μL reaction mixture containing (final concentrations) 40 mM Tris HCl (pH 8.0), 1 μM ZnSO4, 5 mM MgCl2, and 0.1 mg/mL bovine serum albumin (BSA). PDE enzyme was present in quantities that yield <30% total hydrolysis of substrate (linear assay conditions). The assay was initiated by addition of substrate ([…] [32P]cAMP or cGMP), and the mixture was incubated for 12 minutes. Seventy-five (75) μg of Crotalus atrox venom then was added, and the incubation was continued for 3 minutes (15 minutes total). The reaction was stopped by addition of 200 μL of activated charcoal (25 mg/mL suspension in 0.1 M NaH2PO4, pH 4). After centrifugation (750×g for 3 minutes) to sediment the charcoal, a sample of the supernatant was taken for radioactivity determination in a scintillation counter and the PDE activity was calculated.
cGMP-PDE activity of compounds of the present invention was measured using a one-step assay adapted from Wells et al., Biochim. Biophys. Acta, 384, 430 (1975). The reaction medium contained 50 mM Tris-HCl, pH 7.5, 5 mM magnesium acetate, 250 μg/ml 5′-Nucleotidase, 1 mM EGTA, and 0.15 μM 8-[H^3]-cGMP. Unless otherwise indicated, the enzyme used was a human recombinant PDE5 (ICOS Corp., Bothell, Wash.).
Compounds of the invention were dissolved in DMSO finally present at 2% in the assay.

SMILES | melting point [°C] | IC50 (recombinant human PDE5) [nM]
CN1CC(=O)N2[C@H](c3ccc4c(c3)OCO4)c3sc4ccccc4c3C[C@@H]2C1=O (racemic) [Example 4, (+/−,cis)-10-Benzo[1,3]dioxol-5-yl-7-methyl-5,7,8,10-tetrahydro-5aH-11-thia-7,9a-diazabenzo[β]fluorene-6,9-dione] | 245 to 266 | 555
CN1CC(=O)N2[C@H](c3ccc4c(c3)OCO4)c3c([nH]c4ccccc34)C[C@@H]2C1=O [Example 5(a), (5R,9aR)-5-Benzo(1,3)dioxol-5-yl-8-methyl-5,7,8,9a,10,11-hexahydro-5a,8,11-triaza-benzo[b]fluorane-8,9-dione] | 274 to 277 | 338
CN1CC(=O)N2[C@@H](c3ccc4c(c3)OCO4)c3c([nH]c4ccccc34)C[C@@H]2C1=O [Example 5(b), (5S,9aR)-5-Benzo[1,3]dioxol-5-yl-8-methyl-5,7,8,9a,10,11-hexahydro-5a,8,11-triaza-benzo[b]fluorene-8,9-dione] | 274 to 277 | 125
CN1CC(=O)N2[C@H](c3ccc4c(c3)OCO4)c3[nH]c4ncccc4c3C[C@@H]2C1=O (racemic) [Example 1, (+/−,cis)-10-Benzo[1,3]dioxol-5-yl-7-methyl-5,5a,7,8,10,11-hexahydro-1,7,9a,11-tetraazabeno[β]fluorene-6,9-dione] | 262 to 276 | 2.3
